Measured values as given in ChEMBL document CHEMBL3792336, “Synthesis and antitumor activity of ATB-429 derivatives containing a nitric oxide-releasing moiety” (Bioorg Med Chem Lett, 2016).
Blank lines part the entries; values can stand above or below the molecule they belong to.

Assays:
HT-29 [1] = experiment: Antiproliferative activity against human HT-29 cells after 72 hrs by MTT assay; format: functional, cell-based; conditions: HT-29, 72 h
MCF7 [2] = experiment: Antiproliferative activity against human MCF7 cells after 72 hrs by MTT assay; format: functional, cell-based; conditions: MCF7, 72 h
A549 [3] = experiment: Antiproliferative activity against human A549 cells after 72 hrs by MTT assay; format: functional, cell-based; conditions: A549, 72 h
[4] = Antiproliferative activity against human PANC1 cells after 72 hrs by MTT assay; format: functional, cell-based; conditions: PANC-1, 72 h
[5] = Antiproliferative activity against human DU145 cells after 72 hrs by MTT assay; format: functional, cell-based; conditions: DU-145, 72 h
[6] = Antiproliferative activity against human HL60 cells after 72 hrs by MTT assay; format: functional, cell-based; conditions: HL-60, 72 h
[7] = Antiproliferative activity against human HL60 cells at 30 uM after 72 hrs by MTT assay; format: functional; conditions: HL-60, 72 h
[8] = Antiproliferative activity against human PANC1 cells at 30 uM after 72 hrs by MTT assay; format: functional; conditions: PANC-1, 72 h
[9] = Antiproliferative activity against human DU145 cells at 30 uM after 72 hrs by MTT assay; format: functional; conditions: DU-145, 72 h
MCF7 [10] = experiment: Antiproliferative activity against human MCF7 cells at 30 uM after 72 hrs by MTT assay; format: functional; conditions: MCF7, 72 h
A549 [11] = experiment: Antiproliferative activity against human A549 cells at 30 uM after 72 hrs by MTT assay; format: functional; conditions: A549, 72 h
HT-29 [12] = experiment: Antiproliferative activity against human HT-29 cells at 30 uM after 72 hrs by MTT assay; format: functional; conditions: HT-29, 72 h

Compound: Nc1ccc(OC(=O)CCCO[N+](=O)[O-])c(C(=O)Oc2ccc(-c3cc(=S)ss3)cc2)c1
inhibition at 30 µM [7]: 8.73%
inhibition at 30 µM [8]: -10.5%
inhibition at 30 µM [9]: -7.67%
inhibition at 30 µM (MCF7 [10]): -5.55%
inhibition at 30 µM (A549 [11]): -18.4%
inhibition at 30 µM (HT-29 [12]): -13.3%

Compound: O=C(Nc1ccc(OC(=O)CCCO[N+](=O)[O-])c(C(=O)Oc2ccc(-c3cc(=S)ss3)cc2)c1)Nc1ccc(F)cc1F
inhibition at 30 µM [7]: 0.43%
inhibition at 30 µM [8]: -14.8%
inhibition at 30 µM [9]: -7.47%
inhibition at 30 µM (MCF7 [10]): -6.87%
inhibition at 30 µM (A549 [11]): -28%
inhibition at 30 µM (HT-29 [12]): -6.41%

Compound: O=C(Nc1cccc(Cl)c1)Nc1ccc(OC(=O)CCCO[N+](=O)[O-])c(C(=O)Oc2ccc(-c3cc(=S)ss3)cc2)c1
inhibition at 30 µM [7]: 10.9%
inhibition at 30 µM [8]: -17.3%
inhibition at 30 µM [9]: 5.49%
inhibition at 30 µM (MCF7 [10]): 6.1%
inhibition at 30 µM (A549 [11]): -23.3%
inhibition at 30 µM (HT-29 [12]): 21.5%

Compound: O=C(Nc1ccc(F)cc1)Nc1ccc(OC(=O)CCCO[N+](=O)[O-])c(C(=O)Oc2ccc(-c3cc(=S)ss3)cc2)c1
inhibition at 30 µM [7]: 8.68%
inhibition at 30 µM [8]: -12.9%
inhibition at 30 µM [9]: 15.3%
inhibition at 30 µM (MCF7 [10]): 19.1%
inhibition at 30 µM (A549 [11]): -27.2%
inhibition at 30 µM (HT-29 [12]): 6.92%

Compound: O=C(Nc1cccc(C(F)(F)F)c1)Nc1ccc(OC(=O)CCCO[N+](=O)[O-])c(C(=O)Oc2ccc(-c3cc(=S)ss3)cc2)c1
inhibition at 30 µM [7]: 14.1%
inhibition at 30 µM [8]: -5.71%
inhibition at 30 µM [9]: -14.2%
inhibition at 30 µM (MCF7 [10]): -6.78%
inhibition at 30 µM (A549 [11]): -22.1%
inhibition at 30 µM (HT-29 [12]): 13.2%

Compound: COc1ccc(NC(=O)Nc2ccc(OC(=O)CCCO[N+](=O)[O-])c(C(=O)Oc3ccc(-c4cc(=S)ss4)cc3)c2)cc1
inhibition at 30 µM [7]: 8.3%
inhibition at 30 µM [8]: 2.19%
inhibition at 30 µM [9]: -6.39%
inhibition at 30 µM (MCF7 [10]): 16%
inhibition at 30 µM (A549 [11]): 3.19%
inhibition at 30 µM (HT-29 [12]): 12.1%

Compound: Cc1cccc(NC(=O)Nc2ccc(OC(=O)CCCO[N+](=O)[O-])c(C(=O)Oc3ccc(-c4cc(=S)ss4)cc3)c2)c1
inhibition at 30 µM [7]: 7.34%
inhibition at 30 µM [8]: -14.2%
inhibition at 30 µM [9]: -19.3%
inhibition at 30 µM (MCF7 [10]): 13.9%
inhibition at 30 µM (A549 [11]): -19.8%
inhibition at 30 µM (HT-29 [12]): 9.56%

The next lines start with results.

IC50 (HT-29 [1]): 1920 nM
IC50 (MCF7 [2]): 3540 nM
IC50 (A549 [3]): 2630 nM
Compound: COc1cc2/c(=N/c3ccc(Br)cc3F)nc[nH]c2cc1OCC1CCN(C)CC1 [VANDETANIB]
IC50 [4]: 4110 nM
IC50 [5]: 1970 nM
IC50 [6]: 1490 nM

IC50 (HT-29 [1]): 926 nM
Compound: CC(C)(C)OC(=O)Nc1ccc(OCCCOc2no[n+]([O-])c2S(=O)(=O)c2ccccc2)c(C(=O)Oc2ccc(-c3cc(=S)ss3)cc2)c1
inhibition at 30 µM [7]: 84%
inhibition at 30 µM [8]: 97.4%
inhibition at 30 µM [9]: 67.9%
inhibition at 30 µM (MCF7 [10]): 25.2%
inhibition at 30 µM (A549 [11]): -23.8%
inhibition at 30 µM (HT-29 [12]): 103%
IC50 [4]: 3020 nM

IC50 (HT-29 [1]): 5440 nM
IC50 (MCF7 [2]): 11900 nM
Compound: Nc1ccc(OCCOCCOc2no[n+]([O-])c2S(=O)(=O)c2ccccc2)c(C(=O)Oc2ccc(-c3cc(=S)ss3)cc2)c1
inhibition at 30 µM [7]: 84.4%
inhibition at 30 µM [8]: 97.1%
inhibition at 30 µM [9]: 63.2%
inhibition at 30 µM (MCF7 [10]): 90%
inhibition at 30 µM (A549 [11]): 62.8%
inhibition at 30 µM (HT-29 [12]): 101%
IC50 [4]: 8000 nM

IC50 (HT-29 [1]): 256 nM
Compound: CC(C)(C)OC(=O)Nc1ccc(OCCOc2no[n+]([O-])c2S(=O)(=O)c2ccccc2)c(C(=O)Oc2ccc(-c3cc(=S)ss3)cc2)c1
inhibition at 30 µM [7]: 84.6%
inhibition at 30 µM [8]: 97.1%
inhibition at 30 µM [9]: 61.6%
inhibition at 30 µM (MCF7 [10]): 83.1%
inhibition at 30 µM (A549 [11]): 88.5%
inhibition at 30 µM (HT-29 [12]): 103%
IC50 [4]: 1450 nM

IC50 (HT-29 [1]): 769 nM
IC50 (MCF7 [2]): 2680 nM
IC50 (A549 [3]): 4170 nM
Compound: Nc1ccc(OCCOc2no[n+]([O-])c2S(=O)(=O)c2ccccc2)c(C(=O)Oc2ccc(-c3cc(=S)ss3)cc2)c1
inhibition at 30 µM [7]: 92.3%
inhibition at 30 µM [8]: 96.6%
inhibition at 30 µM [9]: 93.8%
inhibition at 30 µM (MCF7 [10]): 90.1%
inhibition at 30 µM (A549 [11]): 100%
inhibition at 30 µM (HT-29 [12]): 102%
IC50 [4]: 1860 nM
IC50 [5]: 1270 nM
IC50 [6]: 1880 nM

IC50 (HT-29 [1]): 559 nM
IC50 (MCF7 [2]): 3050 nM
IC50 (A549 [3]): 3280 nM
Compound: Nc1ccc(OCCCOc2no[n+]([O-])c2S(=O)(=O)c2ccccc2)c(C(=O)Oc2ccc(-c3cc(=S)ss3)cc2)c1
inhibition at 30 µM [7]: 87.3%
inhibition at 30 µM [8]: 97.5%
inhibition at 30 µM [9]: 94.8%
inhibition at 30 µM (MCF7 [10]): 92.1%
inhibition at 30 µM (A549 [11]): 100%
inhibition at 30 µM (HT-29 [12]): 103%
IC50 [4]: 971 nM
IC50 [5]: 2240 nM

IC50 (HT-29 [1]): 536 nM
Compound: CC(C)(C)OC(=O)Nc1ccc(OCCOCCOc2no[n+]([O-])c2S(=O)(=O)c2ccccc2)c(C(=O)Oc2ccc(-c3cc(=S)ss3)cc2)c1
inhibition at 30 µM [7]: 84.5%
inhibition at 30 µM [8]: 97.9%
inhibition at 30 µM [9]: 54.7%
inhibition at 30 µM (MCF7 [10]): 63.1%
inhibition at 30 µM (A549 [11]): 18.7%
inhibition at 30 µM (HT-29 [12]): 103%
IC50 [4]: 2800 nM
